Results taken from the NIST ThermoML archive (doi:10.1016/j.fluid.2016.01.044).
Numbers after ± are expanded uncertainties.

What was measured:
[1] = Crystal; DTA
[2] = Molar enthalpy of transition or fusion; conditions: Crystal; DSC

Normal melting temperature [1]	Molar enthalpy of transition or fusion [2]	SMILES
-28.52 ± 0.5 °C	6.89 ± 0.196 kcal/mol	CCCCCCCCCC [decane]
-0.20 ± 0.5 °C	9.15 ± 0.263 kcal/mol	CCCCCCCCCCCC(=O)OCC [ethyl dodecanoate]
24.78 ± 0.5 °C	–	CCCCCCCCCCCCCCCC(=O)OCC [ethyl hexadecanoate]
